Structures are written as SMILES. Some results are limits rather than exact numbers.

The target in the assay is T1, Recombinant human HSD17B13 enzyme (Homo sapiens, UniProt Q7Z5P4).
T1 sequence (Q7Z5P4 20-300): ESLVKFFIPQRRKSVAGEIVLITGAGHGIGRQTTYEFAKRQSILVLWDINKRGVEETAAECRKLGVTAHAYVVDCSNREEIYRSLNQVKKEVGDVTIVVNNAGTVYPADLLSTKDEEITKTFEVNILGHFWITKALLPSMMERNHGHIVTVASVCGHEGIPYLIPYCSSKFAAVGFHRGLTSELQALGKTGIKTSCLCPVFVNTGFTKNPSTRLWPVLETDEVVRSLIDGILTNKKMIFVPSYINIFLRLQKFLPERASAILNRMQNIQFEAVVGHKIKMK
In words: HSD17b13 NAD(P)H-Glo biochemical assay. The note with it: for IC50: 50 uM estradiol, 1 mM NAD+, NAD(P)H-Glo luminescence, read-out: HSD17β13 IC50; for inhibition at 10 µM: at 10 uM compound, read-out: HSD17β13 % inhibition at 10 uM. The protocol: Example B-1: HSD17b13 NAD(P)H-Glo Biochemical Assay
Recombinant human HSD17B13 enzyme. Substrate: estradiol (Sigma β-Estradiol E8875), 100 mM in DMSO. Cofactor: NAD+ Grade I free acid (Sigma 10127965001), 20 mM in H2O. Assay buffer final concentration: 20 mM Tris pH7.4 with 0.002% Tween-20 and 0.02% BSA. Assay performed in 384 well solid bottom plate (Corning 3570). Enzymatic activity detected by NAD(P)H-Glo™ Detection System (Promega G9062).
Inhibitor compounds were serially diluted in DMSO and then further diluted in assay buffer to a 10× concentration consisting of 1% DMSO.
HSD17b13 enzyme was diluted in 1× assay buffer to the desired enzyme concentration based on the specific activity of the enzyme lot. 20 uL of diluted enzyme was added to each well along with 2.5 uL of 10× inhibitor solution. Assay plate was incubated at RT for 20 minutes, and then 2.5 uL of a 10× substrate/cofactor mix was added to each well for a final concentration of 50 uM estradiol and 1 mM NAD+. Assay plate was incubated at 37° C. for 3 hours. NAD(P)H-Glo™ Detection System reagents were prepared according to manufacturer's specifications, and 25 uL was added to each well. After incubating for 1 hour at RT, luminescence was measured.

As for `O=C(NCC1(O)CCC1)c1ccc2oc(-c3cc(C(F)(F)F)c(F)c(O)c3F)nc2c1` [Compound 1.30, 2-(2,4-Difluoro-3-hydroxy-5-(trifluoromethyl)phenyl)-N-((1-hydroxycyclobutyl)methyl)benzo[d] oxazole-5-carboxamide], the concentration for half-maximal inhibition (IC50) (in general, the midpoint of a concentration-inhibition curve) fell in the range of 100 to 1000 nM.

For the compound `O=C(NC12CC(C1)C2)c1ccc2oc(-c3cc(C(F)(F)F)cc(O)n3)nc2c1` [Compound 1.31, N-(Bicyclo[1.1.1]pentan-1-yl)-2-(6-hydroxy-4-(trifluoromethyl)pyridin-2-yl)benzo[d]oxazole-5-carboxamide], the inhibition (as a rule, how much of the control response was suppressed) at 10 µM came to 50%. Take `O=C(NC1CCC1)c1ccc2oc(-c3cc(O)cc(C(F)(F)F)c3)nc2c1` [Compound 2, N-Cyclobutyl-2-(3-hydroxy-5-(trifluoromethyl)phenyl)benzo[d]oxazole-5-carboxamide]: the half-maximal inhibitory concentration (IC50) was in the range of 100 to 1000 nM. `O=C(NC12CC(C1)C2)c1ccc2oc(-c3cc(O)cc(C(F)(F)F)c3)nc2c1` [Compound 2.01, N-(Bicyclo[1.1.1]pentan-1-yl)-2-(3-hydroxy-5-(trifluoromethyl)phenyl)benzo[d]oxa-zole-5-carboxamide]: the IC50 was under 100 nM. On to `Cc1cc(-c2nc3cc(C(=O)NC4CCC4)ccc3o2)cc(O)c1F` [Compound 2.02, N-Cyclobutyl-2-(4-fluoro-3-hydroxy-5-methylphenyl)benzo[d]oxazole-5-carboxamide], for which the inhibition at 30 µM (at 30 uM compound, read-out: HSD17β13 % inhibition at 30 uM) was 20%. In the case of `Oc1cc(-c2nc3cc(-c4ccc(O)c(Cl)c4)ccc3o2)ccc1F` [Compound 3, 2-Chloro-4-(2-(4-fluoro-3-hydroxyphenyl)benzo[d]oxazol-5-yl)phenol], the half-maximal inhibitory concentration (IC50) fell in the range of 100 to 1000 nM. Turning to `Oc1cc(-c2nc3ccc(-c4ccc(O)c(Cl)c4)cc3o2)ccc1F` [Compound 3.01, 2-Chloro-4-(2-(4-fluoro-3-hydroxyphenyl)benzo[d]oxazol-6-yl)phenol], the IC50 lay in the range of 100 to 1000 nM. As for `Oc1ccc(-c2ccc3oc(-c4ccc(F)c(O)c4)nc3c2)cc1` [Compound 3.02, 2-Fluoro-5-(5-(4-hydroxyphenyl)benzo[d]oxazol-2-yl)phenol], the IC50 fell in the range of 100 to 1000 nM. In the case of `Oc1cccc(-c2ccc3oc(-c4ccc(F)c(O)c4)nc3c2)c1` [Compound 3.03, 2-Fluoro-5-(5-(3-hydroxyphenyl)benzo[d]oxazol-2-yl)phenol], the concentration for half-maximal inhibition (IC50) lay within 1000 to 30000 nM. For `CS(=O)(=O)N1CCN(c2ccc3oc(-c4ccc(F)c(O)c4)nc3c2)CC1` [Compound 4, 2-Fluoro-5-(5-(4-(methylsulfonyl)piperazin-1-yl)benzo[d]oxazol-2-yl)phenol], the IC50 was 100 to 1000 nM. Regarding `CS(=O)(=O)N1CCN(c2ccc3nc(-c4cc(O)cc(C(F)(F)F)c4)oc3c2)CC1` [Compound 4.01, 3-(6-(4-(Methylsulfonyl)piperazin-1-yl)benzo[d]oxazol-2-yl)-5-(trifluoromethyl)phenol], the 50% inhibitory concentration (IC50) was in the range of 100 to 1000 nM.

As for `CS(=O)(=O)N1CCN(c2ccc3oc(-c4cc(O)cc(C(F)(F)F)c4)nc3c2)CC1` [Compound 4.02, 3-(5-(4-(Methylsulfonyl)piperazin-1-yl)benzo[d]oxazol-2-yl)-5-(trifluoromethyl)phenol], the concentration for half-maximal inhibition (IC50) was 100 to 1000 nM. On the same count and under the same terms, in the case of `CS(=O)(=O)N1CCN(c2cc3nc(-c4cc(O)c(F)c(F)c4)oc3cc2Cl)CC1` [Compound 5, 5-(6-Chloro-5-(4-(methylsulfonyl)piperazin-1-yl)benzo[d]oxazol-2-yl)-2,3-difluorophenol] it was 100 to 1000 nM; in that of `CS(=O)(=O)C1CN(c2cc3nc(-c4cc(O)c(F)c(F)c4)oc3cc2Cl)C1` [Compound 5.01, 5-(6-Chloro-5-(3-(methylsulfonyl)azetidine-1-yl)benzo[d]oxazol-2-yl)-2,3-difluorophenol], 100 to 1000 nM. Regarding `CS(=O)(=O)N1CCN(c2ccc3oc(-c4cc(O)c(F)c(F)c4)nc3c2)CC1` [Compound 5.02, 2,3-Difluoro-5-(5-(4-(methylsulfonyl)piperazin-1-yl)benzo[d]oxazol-2-yl)phenol], the half-inhibitory concentration (IC50) was 100 to 1000 nM. Take `CS(=O)(=O)N1CCN(c2ccc3oc(-c4cc(O)c(F)c(C(F)(F)F)c4)nc3c2)CC1` [Compound 6, 2-Fluoro-5-(5-(4-(methylsulfonyl)piperazin-1-yl)benzo[d]oxazol-2-yl)-3-(trifluoromethyl)phenol]: the IC50 is under 100 nM. Turning to `CS(=O)(=O)N1CCN(c2cc3oc(-c4cc(O)c(F)c(C(F)(F)F)c4)nc3cn2)CC1` [Compound 6.01, 2-Fluoro-5-(6-(4-(methylsulfonyl)piperazin-1-yl)oxazolo[4,5-c]pyridin-2-yl)-3-(trifluoromethyl)phenol], the IC50 was in the range of 100 to 1000 nM. Still for that read-out and setting: in the case of `CS(=O)(=O)N1CCN(c2ccc3nc(-c4cc(O)c(F)c(C(F)(F)F)c4)oc3c2)CC1` [Compound 6.02, 2-Fluoro-5-(6-(4-(methylsulfonyl)piperazin-1-yl)benzo[d]oxazol-2-yl)-3-(trifluoromethyl)phenol] it was under 100 nM. Consider `CS(=O)(=O)N1CCN(c2ccc3oc(-c4cc(C(F)(F)F)c(F)c(O)c4F)nc3c2)CC1` [Compound 7, 2,6-Difluoro-3-(5-(4-(methylsulfonyl)piperazin-1-yl)benzo[d]oxazol-2-yl)-5-(trifluoromethyl)phenol], for which the half-inhibitory concentration (IC50) is 100 to 1000 nM. As to `CS(=O)(=O)N1CCN(c2ccc3oc(-c4cc(C(F)(F)F)cc(O)n4)nc3c2)CC1` [Compound 7.01, 6-(5-(4-(Methylsulfonyl)piperazin-1-yl)benzo[d]oxazol-2-yl)-4-(trifluoromethyl)pyridin-2-ol], the IC50 fell in the range of 1000 to 30000 nM.

With `CS(=O)(=O)N1CCN(c2ccc3oc(-c4cc(C(F)(F)F)c(F)c(O)n4)nc3c2)CC1` [Compound 7.02, 3-Fluoro-6-(5-(4-(methylsulfonyl)piperazin-1-yl)benzo[d]oxazol-2-yl)-4-(trifluoromethyl)pyridin-2-ol], the inhibition at 10 µM stood at 40%. As to `Cn1nc(-c2cc(C(F)(F)F)c(F)c(O)c2F)c2cnc(N3CCOCC34CC4)cc21` [Compound 8, 2,6-Difluoro-3-(1-methyl-6-(7-oxa-4-azaspiro[2.5]octan-4-yl)-1H-pyrazolo[4,3-c]pyridin-3-yl)-5-trifluoromethyl phenol], the IC50 was under 100 nM. Same read-out and setting: next, `CN(c1cc2c(cn1)c(-c1cc(C(F)(F)F)c(F)c(O)c1F)nn2C)C1CC1` [Compound 9, 3-(6-(Cyclopropyl(methyl)amino)-1-methyl-1H-pyrazolo[4,3-c]pyridin-3-yl)-2,6-difluoro-5-(trifluoromethyl)phenol]: under 100 nM. Same read-out and setting: in the case of `Cn1nc(-c2cc(C(F)(F)F)cc(O)c2F)c2cnc(N3CCN(S(C)(=O)=O)CC3)cc21` [Compound 9.01, 2-Fluoro-3-(1-methyl-6-(4-(methylsulfonyl)piperazin-1-yl)-1H-pyrazolo[4,3-c]pyridin-3-yl)-5-(trifluoromethyl)phenol] it was under 100 nM; in that of `Cn1nc(-c2cc(C(F)(F)F)cc(O)c2F)c2ccc(N3CCN(S(C)(=O)=O)CC3)cc21` [Compound 9.02, 2-Fluoro-3-(1-methyl-6-(4-(methylsulfonyl)piperazin-1-yl)-1H-indazol-3-yl)-5-(trifluoromethyl)phenol], 1000 to 30000 nM. On to `Cn1nc(-c2cc(C(F)(F)F)c(F)c(O)c2F)c2ccc(N3CCOCC34CC4)nc21` [Compound 9.03, 2,6-Difluoro-3-(1-methyl-6-(7-oxa-4-azaspiro[2.5]octan-4-yl)-1H-pyrazolo[3,4-b]pyridin-3-yl)-5-(trifluoromethyl)phenol], for which the IC50 was under 100 nM. As for `Cn1nc(-c2cc(C(F)(F)F)c(F)c(O)c2F)c2cnc(N3CC4(CCOCC4)C3)nc21` [Compound 9.04, 2,6-Difluoro-3-(1-methyl-6-(7-oxa-2-azaspiro[3.5]nonan-2-yl)-1H-pyrazolo[3,4-d]pyrimidin-3-yl)-5-(trifluoromethyl)phenol], the IC50 was under 100 nM. As for `Cn1nc(-c2cc(C(F)(F)F)c(F)c(O)c2F)c2cnc(N3CCC3(C)C)nc21` [Compound 9.05, 3-(6-(2,2-Dimethylazetidin-1-yl)-1-methyl-1H-pyrazolo[3,4-d]pyrimidin-3-yl)-2,6-difluoro-5-(trifluoromethyl)phenol], the half-inhibitory concentration (IC50) was 100 to 1000 nM. As for `Cn1nc(-c2cc(C(F)(F)F)c(F)c(O)c2F)c2cnc(N3CC(C)(C)C3)nc21` [Compound 9.06, 3-(6-(3,3-Dimethylazetidin-1-yl)-1-methyl-1H-pyrazolo[3,4-d]pyrimidin-3-yl)-2,6-difluoro-5-(trifluoromethyl)phenol], the IC50 is under 100 nM. As to `CN(c1cc2c(cn1)c(-c1cc(C(F)(F)F)c(F)c(O)c1F)nn2C)C1CCC1` [Compound 9.07, 3-(6-(Cyclobutyl(methyl)amino)-1-methyl-1H-pyrazolo[4,3-c]pyridin-3-yl)-2,6-difluoro-5-(trifluoromethyl)phenol], the concentration for half-maximal inhibition (IC50) was under 100 nM.
